Patent publication US7919510B2 (priority 2005, dated 2011)
pIC50: −log10 of the molar value.

Assays:
[1] = molecular target: human endothelial constitutive NOS (eNOS) (Homo sapiens, UniProt P29474); assay: biochemical; conditions: read-out: h-eNOS IC50
[2] = human, open pilot study; cited from earlier work

SMILES	pIC50 [1]	patients with a reduction in the frequency of migraine attack of 50% [2] [%]
CN1CCC(n2cnc3cc(NC(=N)c4cccs4)ccc32)CC1 [Compound 59]	5.18	–
C/C1=C2/[N-][C@H]([C@H](CC(N)=O)[C@@]2(C)CCC(=O)NC[C@@H](C)OP(=O)([O-])O[C@H]2[C@@H](O)[C@@H](n3cnc4cc(C)c(C)cc43)O[C@@H]2CO)[C@]2(C)N=C(/C(C)=C3N=C(/C=C4N=C1[C@@H](CCC(N)=O)C\4(C)C)[C@@H](CCC(N)=O)[C@]\3(C)CC(N)=O)[C@@H](CCC(N)=O)[C@]2(C)CC(N)=O.[Co+3].[OH-] [hydroxycobalamin]	–	53
